Results on one compound are retold here after PubChem BioAssay AID2044 (Broad Institute, 2009).

Inconclusive results are not listed.

This experiment deals with T. cruzi beta-gal in NIH3T3, GalScreen luminescence, 90 h. Kind of experiment: Trypanosoma cruzi growth suppression in host cells – NIH3T3 host cells, beta-gal luminescence, confirmation (AID 2044).

As for `C#CCOCCOCCOCCNc1nc(N2CCN(C(=O)CCCCCCCCCCNC(=O)Cn3cc(C[C@@H](C)O)nn3)CC2)nc(N2CCN(C(=O)CCCCCCCCCCNC(=O)[C@H](CCCN=C(N)N)n3cc(C[C@@H](C)CC)nn3)CC2)n1`, the concentration giving a half-maximal response (EC50) was 0.967 µM.

One may read the EC50 as the concentration at which the effect is half-maximal.
